# Experimental data: ChEMBL document CHEMBL2074481, “Regulation of rat multidrug resistance protein 2 by classes of prototypical microsomal enzyme inducers that activate distinct transcription pathways” (Toxicol Sci, 2002)
# Target: ATP-binding cassette sub-family C member 2 (Rattus norvegicus, UniProt Q63120)
# Experiment: TP_TRANSPORTER: Western in vivo, liver of SD rat
# Format: functional, organism-based, Sprague-Dawley
# ATP-binding cassette sub-family C member 2, sequence (Q63120 whole entry): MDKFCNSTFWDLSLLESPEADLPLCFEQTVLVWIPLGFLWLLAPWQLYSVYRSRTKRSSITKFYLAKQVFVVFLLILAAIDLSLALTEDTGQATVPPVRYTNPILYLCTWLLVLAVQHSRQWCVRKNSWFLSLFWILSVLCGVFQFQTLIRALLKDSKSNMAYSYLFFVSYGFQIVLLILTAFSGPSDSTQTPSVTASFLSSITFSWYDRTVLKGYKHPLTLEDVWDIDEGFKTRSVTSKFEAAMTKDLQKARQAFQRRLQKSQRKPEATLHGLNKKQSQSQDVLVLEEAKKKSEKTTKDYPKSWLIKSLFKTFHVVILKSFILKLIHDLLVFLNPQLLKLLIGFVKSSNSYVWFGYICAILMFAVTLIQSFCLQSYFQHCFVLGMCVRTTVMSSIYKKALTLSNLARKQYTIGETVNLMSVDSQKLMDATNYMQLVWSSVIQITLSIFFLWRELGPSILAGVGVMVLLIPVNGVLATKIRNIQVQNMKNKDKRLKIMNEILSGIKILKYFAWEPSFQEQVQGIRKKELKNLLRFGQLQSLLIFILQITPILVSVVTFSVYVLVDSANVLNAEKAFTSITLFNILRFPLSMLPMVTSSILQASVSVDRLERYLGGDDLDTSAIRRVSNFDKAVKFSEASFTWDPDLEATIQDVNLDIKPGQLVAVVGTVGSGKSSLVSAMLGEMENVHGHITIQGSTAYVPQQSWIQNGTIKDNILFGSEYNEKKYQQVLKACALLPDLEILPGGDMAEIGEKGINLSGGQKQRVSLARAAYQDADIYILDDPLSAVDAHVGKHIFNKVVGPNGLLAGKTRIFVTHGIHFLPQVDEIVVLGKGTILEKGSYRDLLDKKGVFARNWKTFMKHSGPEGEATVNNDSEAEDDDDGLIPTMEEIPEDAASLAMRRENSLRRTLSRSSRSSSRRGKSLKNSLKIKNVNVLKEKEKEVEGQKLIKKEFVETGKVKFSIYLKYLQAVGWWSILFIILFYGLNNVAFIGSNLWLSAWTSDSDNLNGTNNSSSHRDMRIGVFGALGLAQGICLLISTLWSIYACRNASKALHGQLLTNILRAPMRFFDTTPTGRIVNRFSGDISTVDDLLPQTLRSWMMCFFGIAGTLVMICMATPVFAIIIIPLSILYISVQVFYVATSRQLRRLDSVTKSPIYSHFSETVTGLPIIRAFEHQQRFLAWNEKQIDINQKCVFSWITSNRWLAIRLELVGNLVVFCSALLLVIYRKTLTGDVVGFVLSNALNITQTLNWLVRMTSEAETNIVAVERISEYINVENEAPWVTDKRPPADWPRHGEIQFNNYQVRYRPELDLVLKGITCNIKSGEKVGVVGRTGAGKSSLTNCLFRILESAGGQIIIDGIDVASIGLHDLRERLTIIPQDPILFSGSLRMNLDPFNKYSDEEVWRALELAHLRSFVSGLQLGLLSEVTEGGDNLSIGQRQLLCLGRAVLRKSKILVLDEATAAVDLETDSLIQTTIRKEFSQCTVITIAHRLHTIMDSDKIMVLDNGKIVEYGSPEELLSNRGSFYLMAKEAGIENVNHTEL
row,Activity,Structure (SMILES)
1,inducer [+],CCOc1ccc2c(c1)C(C)=CC(C)(C)N2 [E324]
2,inducer [+],CC(=O)S[C@@H]1CC2=CC(=O)CC[C@]2(C)[C@H]2CC[C@@]3(C)[C@@H](CC[C@@]34CCC(=O)O4)[C@H]12 [SPIRONOLACTONE]
